Measurements reported in article PMC9015527 (Chemistry (Weinheim an Der Bergstrasse, Germany), 2021).

What was measured:
[1] = system: SARS-CoV-2 isolate MUC-IMB-1/2020; type: cell-based
[2] = system: SARS-CoV-2 isolate MUC-IMB-1/2020; assay: microbe, parasite or virus in culture; type: cell-based
in vitro [3] = conditions: human, Caco-2
in vitro [4] = conditions: simian (monkey)

## CCN(CC)CCCC(C)Nc1ccnc2cc(Cl)ccc12 (stereo not shown) [CQ, chloroquine]
[1]
  SI (Vero 76, mAb-S): >32.3
[2]
  SI (Vero 76, mAb-dsRNA): >14
[2]; Severe acute respiratory syndrome coronavirus 2, Vero 76, read-out: EC50 (Vero 76, mAb-dsRNA)
  EC50: 2200 ± 900 nM
SARS-CoV-2 d6-YFP
  SI (Caco-2): 3.2
In vitro [3]
  CC50: 41.7 ± 2.5 µM
In vitro [4]; CC50 (Vero 76, mAb-S)
  CC50: > 100 µM
In vitro [4]; CC50 (Vero 76, mAb-dsRNA)
  CC50: > 30 µM
